Holding throughout (type): physicochemical
A short description of data set [1]: Stability of compound 1/MCT solution (60 μg/g) kept with gelatin piece at 40° C. for 21 days. Conditions: MCT solution, percentage of theoretical amount (60 μg/g). Here is the method: One hundred (100) parts by weight of gelatin (type A, high bloom, SKW Biosystems #195F) and 35 parts by weight of a plasticizer shown in Table 2 were mixed in water and dried to give gelatin piece. Compound 1 was dissolved in medium chain fatty acid triglyceride (USP/NF grade) to give a liquid mixture comprising 60 μg/g of the compound. 0.5 g of the liquid mixture and 0.5 g of each gelatin piece were put together in a sealed container and kept at 40° C. for 21 days. Then, the concentration of compound 1 contained in the liquid mixture was determined in the same manner as Reference Example 1.

The nature of data set [2]: Stability of soft gelatin capsule of compound 1 at 40° C. Conditions: MCT fill 240 μg/g; for conc. (% of Initial) 40° C. 2 mo: 2 months; for conc. (% of Initial) 40° C. 3 mo: 3 months. Here is the method: Sugar alcohol solution derived from corn starch in an amount shown in Table 3 was added in an appropriate amount of water, stirred and heated. Then, gelatin 100 parts by weight was added thereto to give gelatin solution. Compound 1 was dissolved in medium chain fatty acid triglyceride (USP/NF grade) to give a fill solution containing 240 μg/g of compound 1. The gelatin solution and the liquid mixture were loaded on capsule forming and filling machine to give capsule containing the fill solution therein, and the capsule was dried to give soft gelatin capsule.
The capsule was put in a sealed container and kept at 40° C. for 3 months. The concentration of compound 1 in the fill solution contained in the capsule was determined after 1, 2 and 3 months storage in the same manner as Reference Example 1.

Data set [3] is described as follows: Storage stability of compound 1 solution (240 μg/g) in a vehicle at 55° C., HPLC assay. Conditions: percentage of theoretical amount (240 μg/g); for concentration of compound 1, day 10: 55° C., 10 days. Here is the method: Compound 1 was dissolved in a vehicle shown in table 1 below to give 240 μg/g solution (sample). The precise concentration of compound 1 in the sample was determined by means of HPLC (day 0). Then, the sample was put in a hard grass container and kept at 55° C. for 10 days, and then the precise concentration of the compound 1 in the sample was determined by means of HPLC (day 10).
The determination of the concentration of the compound in the sample was carried out as follows. About 0.2 g of the sample was mixed with exactly 2 ml of internal standard solution and then with a dissolving agent shown in Table 1 to give 5 mL of sample solution. About 12 mg of the reference standard compound 1 was weighted precisely and added with acetonitrile to give exactly 100 ml solution. Exactly 0.8 ml of the solution was obtained and added with exactly 4 ml of the internal standard solution, and then added with the dissolving agent to give 10 ml of standard solution.
The fluorescent labeling agent was added to the respective solution, stirred and stood at room temperature. Then, respective solution in an amount that theoretically gives 3.6 ng of compound 1 was loaded on the column and analyzed under the condition as follows:
Column: 5 mm×25 cm stainless steel column packed with octadecylsilane treated silica gel for HPLC (5 μm)
Mobile phase: mixture of acetonitrile HPLC grade: methanol HPLC grade: ammonium acetate (0.05 mol/L)
Detector: spectrophotofluorometer

Where [4] appears, read: capsule shell gelatin 100 / sugar alcohol solution 35 parts by weight.
The mark [5] stands for this setting: capsule shell gelatin 100 / sugar alcohol solution 45 parts by weight.
Setting [6] is: capsule shell gelatin 100 / sugar alcohol solution 55 parts by weight.
The mark [7] stands for this setting: vehicle polyethylene glycol 400.

Structures are written as SMILES.

Consider `CCCCC(F)(F)[C@@]1(O)CC[C@H]2[C@@H](CC(=O)[C@@H]2CCCCCCC(=O)O)O1` [compound 1, 7-[(2R,4aR,5R,7aR)-2-(1,1-difluoropentyl)-2-hydroxy-6-oxooctahydrocyclopenta[b]pyran-5-yl]heptanoic acid], for which the results for the “concentration of compound 1 after storage” value in data set [1] (gelatin piece with glycerin plasticizer (water content 23%)) and in data set [1] (gelatin piece with sugar alcohol solution derived from corn starch as plasticizer (water content 25%)) were 86.8% and 92.0%, respectively. The “conc. (% of Initial) 40° C. 1 mo” value in data set [2] (capsule shell gelatin 100 / sugar alcohol solution 35 parts by weight, 1 month) is 99.9%. The entries for the “conc. (% of Initial) 40° C. 2 mo” value in data set [2] (setting [4]), in data set [2] (setting [5]) and in data set [2] (setting [6]) were 100.3%, 100.5% and 99.3%, respectively. For the same molecule, the entries for the “conc. (% of Initial) 40° C. 3 mo” value in data set [2] (setting [4]), in data set [2] (setting [5]) and in data set [2] (setting [6]) were 99.2%, 100.0% and 100.0%, respectively. The “concentration of compound 1, day 10” value in data set [3] (vehicle glycerin) came to 78.0%; in data set [3] (vehicle hydrogenated maltose starch syrup), 24.4%; in data set [3] (setting [7]) it was 90.1%; in data set [3] (vehicle propylene glycol), 88.6%; in data set [3] (vehicle sugar alcohol solution derived from corn starch (Polysorb 85/70/00)), 26.2%. The “concentration of compound 1, day 0” value in data set [3] (vehicle glycerin) came out at 92.0%; in data set [3] (setting [7]) it was 98.2%; in data set [3] (vehicle propylene glycol), 97.8%.
